Assay results: patent US20120100361A1, “ANTISEPTIC COMPOSITION FOR ENGINEERING WOOD PRODUCTION, AND ENGINEERING WOOD” (SDS BIOTECH K.K., priority 2009, published 2012)

Legend:
[1] = tested on: fungus cellar soil-bed; assay: Fungus cellar soil-bed test of preservative plywood (JIS K1571:2004); details: for Grade average of the decay damage of five test samples: plywood, six months, 25° C., grade 0 sound condition to 5 out of shape due to the decay
Method: (§1) 1000 g of urea melamine resin (PWP-60, manufactured by Oshika Corporation) was added to 180 g of wheat flour and fully kneaded to thereby obtain a kneaded product. 8 g of ammonium chloride was added as a hardening agent to the kneaded product, and a solution of each of the compounds of Example 1 and Comparative Example 1, 2 and 5 to 25 was further added thereto so that the final concentrations of the compound in the wood become 150, 100, 50 and 25 g/m^3 and kneaded. 18 g of the above kneaded product was applied onto each of the bonding plane of the three red lauan veneer sheets having an area of 30 x 30 cm and thickness of 0.85 mm/2.4 mm/0.85 mm. After bonding the three sheets to each other, the sheets were subjected to cold pressing at room temperature for 20 minutes and the thermal pressure of 120° C. (10 kgf/cm^2) was applied to the sheets for two minutes to obtain the target plywood. Each of the prepared plywood was processed into the size of 20×20×4.1 mm to serve as a test sample.
The preservative plywood was prepared in the same manner in Preparation Example 2. Each of the prepared plywood was processed into the size of 8.9 x 8.9×100 mm to serve as a test sample.
(§2) The samples of the plywood and LVL prepared in Preparation Examples 4 and 5 were evaluated by the fungus cellar soil-bed test according to JIS K1571:2004. The weather resistance operation and the test method for the antiseptic effect were performed according to the above test method. The test was carried out for six months setting the test temperature to 25° C. (because the grade average of the decay damage of the non-treated test samples exceeded 2.5 in six months). […] The effect in the glue line treatment was actually investigated with respect to a number of existing antiseptics, and it was confirmed that only epoxyconazole is suitable for the glue line treatment at a low concentration.

[2] = Test for miscibility with a phenol resin glue; format: physicochemical; design: key to Phenol resin status after 60 minutes: ∘: No change; x: Obvious increase in the viscosity was seen and it seems impossible to apply the composition onto the veneer sheet; details: for Phenol resin status after 60 minutes: 10% (w/w) solution added to phenol resin glue Deernol D-117 kneaded product, viscosity change visually observed for 60 minutes; for compatibility with phenol resin glue (in words): summary of Table 1
Method: The following compounds, which are known to have wood preservative activity, are dissolved in methyl ethylene triglycol to reach a concentration of 10% (w/w) to thereby obtain a solution of each of the compounds.
1000 g of phenol resin-based glue Deernol D-117 (manufactured by Oshika Corporation), 70 g of wheat flour and 100 g of calcium carbonate were mixed and well kneaded. Each of the solutions of Example 1 and Comparative Example 1 to 25 was added to 17 g of the kneaded product and mixed well together. The viscosity change of the glue was visually observed for 60 minutes. […] Although a number of documents listed as the prior art documents and the like teach that quaternary ammonium compounds can be applied to the glue line treatment, it is clear that those compounds have a problem for practical use (Comparative Examples 3 and 4). On the other hand, it was confirmed that the other compounds including that of Example has no problem from the viewpoint of compatibility.

[3] = tested on: Trametes versicolor; assay: Test for antiseptic effects of preservative plywood (JIS K1571:2004); format: cell-based; details: for average rate of decrease in weight: plywood, urea melamine resin, Trametes versicolor; for amount showing the antiseptic effect on Trametes versicolor: glue line method, summary of Tables 2 and 3
Method: as §1
(§3) The samples of the plywood and LVL prepared in Preparation Examples 2 and 3 were evaluated by the test for antiseptic effects for the drug pressure treatment according to JIS K1571:2004. The weather resistance operation and the test method for the antiseptic effect were performed according to the above test method.

[4] = tested on: Fomitopsis palustris; assay: as above; format: cell-based; details: for average rate of decrease in weight: plywood, urea melamine resin, Fomitopsis palustris
Method: as §1, §3

[5] = tested on: fungus cellar soil-bed; assay: Fungus cellar soil-bed test of preservative LVL (JIS K1571:2004); details: 25° C., grade 0 sound condition to 5 out of shape due to the decay
Method: (§4) 1000 g of the phenol resin-based glue Deernol D-117 (manufactured by Oshika Corporation), 70 g of wheat flour and 100 g of calcium carbonate were mixed and well kneaded. A solution of each of the compounds of Example 1 and Comparative Example 1, 2 and 5 to 25 was added to the kneaded product so that the final concentrations of the compound in the wood become 150, 100, 50 and 25 g/m^3 and further kneaded. 18 g of the above kneaded product was applied onto each of the surface of glue line of the three Radiata pine veneer sheets having an area of 30 x 30 cm and thickness of 3 mm. After bonding the three sheets to each other, the sheets were subjected to cold pressing at room temperature for 20 minutes and the thermal pressure of 140° C. (10 kgf/cm^2) was applied to the sheets for two minutes to obtain the target LVL. Each of the prepared LVL was processed into the size of 20×20×9 mm to serve as a test sample.
The preservative LVL was prepared in the same manner in Preparation Example 3. Each of the prepared LVL was processed into the size of 9×9×100 mm to serve as a test sample.
as §2

[6] = tested on: Trametes versicolor; assay: Test for antiseptic effects of preservative LVL (JIS K1571:2004); format: cell-based; details: phenol resin
Method: as §4, §3

[7] = tested on: Fomitopsis palustris; assay: as above; format: cell-based; details: phenol resin
Method: as §4, §3

## Fc1ccc([C@]2(Cn3cncn3)O[C@H]2c2ccccc2Cl)cc1 (racemic) [Example 1, Epoxyconazole]
[1]; fungus cellar soil-bed test, plywood and LVL, text summary of Tables 4 and 5
  amount showing sufficient antiseptic effect: 25 to 50 g/m^3
[1]; treated amount 25 g/m^3
  Grade average of the decay damage of five test samples: 0.2
[1]; treated amount 50 g/m^3
  Grade average of the decay damage of five test samples: 0
[1]; treated amount 100 g/m^3
  Grade average of the decay damage of five test samples: 0
[1]; treated amount 150 g/m^3
  Grade average of the decay damage of five test samples: 0
[2]
  Phenol resin status after 60 minutes: ∘
[3]; treated amount 25 g/m^3
  average rate of decrease in weight: ◯ (The average rate of decrease in weight was less than 3%.)
[3]; treated amount 50 g/m^3
  average rate of decrease in weight: ◯ (The average rate of decrease in weight was less than 3%.)
[3]; treated amount 100 g/m^3
  average rate of decrease in weight: ◯ (The average rate of decrease in weight was less than 3%.)
[3]; treated amount 150 g/m^3
  average rate of decrease in weight: ◯ (The average rate of decrease in weight was less than 3%.)
[4]; glue line method, plywood and LVL, both fungi, summary of Tables 2 and 3
  amount showing sufficient antiseptic effect: 25 to 50 g/m^3
[4]; treated amount 25 g/m^3
  average rate of decrease in weight: ◯ (The average rate of decrease in weight was less than 3%.)
[4]; treated amount 50 g/m^3
  average rate of decrease in weight: ◯ (The average rate of decrease in weight was less than 3%.)
[4]; treated amount 100 g/m^3
  average rate of decrease in weight: ◯ (The average rate of decrease in weight was less than 3%.)
[4]; treated amount 150 g/m^3
  average rate of decrease in weight: ◯ (The average rate of decrease in weight was less than 3%.)
[5]; treated amount 25 g/m^3, six months
  Grade average of the decay damage of five test samples: 0.4
[5]; treated amount 50 g/m^3, six months
  Grade average of the decay damage of five test samples: 0
[5]; treated amount 100 g/m^3, six months
  Grade average of the decay damage of five test samples: 0
[5]; treated amount 150 g/m^3, six months
  Grade average of the decay damage of five test samples: 0
[6]; treated amount 25 g/m^3
  average rate of decrease in weight: ◯ (The average rate of decrease in weight was less than 3%.)
[6]; treated amount 50 g/m^3
  average rate of decrease in weight: ◯ (The average rate of decrease in weight was less than 3%.)
[6]; treated amount 100 g/m^3
  average rate of decrease in weight: ◯ (The average rate of decrease in weight was less than 3%.)
[6]; treated amount 150 g/m^3
  average rate of decrease in weight: ◯ (The average rate of decrease in weight was less than 3%.)
[7]; treated amount 25 g/m^3
  average rate of decrease in weight: ◯ (The average rate of decrease in weight was less than 3%.)
[7]; treated amount 50 g/m^3
  average rate of decrease in weight: ◯ (The average rate of decrease in weight was less than 3%.)
[7]; treated amount 100 g/m^3
  average rate of decrease in weight: ◯ (The average rate of decrease in weight was less than 3%.)
[7]; treated amount 150 g/m^3
  average rate of decrease in weight: ◯ (The average rate of decrease in weight was less than 3%.)

## CCCCC(O)(Cn1cncn1)c1ccc(Cl)cc1Cl (centres unmarked) [Comparative Example 1, hexaconazole]
[2]
  Phenol resin status after 60 minutes: ∘
[3]
  amount showing the antiseptic effect on Trametes versicolor: ≥ 50 g/m^3

## C[Si](C)(C)CC(O)(Cn1cncn1)c1ccc(F)cc1F (centres unmarked) [Comparative Example 2, 2-(2,4-difluorophenyl)-1-(1H-1,2,4-triazole-1-yl)-3-(trimethylsilyl)propane-2-ol]
[2]
  Phenol resin status after 60 minutes: ∘
[3]
  amount showing the antiseptic effect on Trametes versicolor: ≥ 100 g/m^3

## CCCCCCCCCC[N+](C)(C)CCCCCCCCCC.[Cl-] [Comparative Example 4, didecyldimethylammonium chloride]
[2]
  Phenol resin status after 60 minutes: x
  compatibility with phenol resin glue (in words): harden the glue

## CC(C1CC1)C(O)(Cn1cncn1)c1ccc(Cl)cc1 (centres unmarked) [Comparative Example 5, cyproconazole]
[2]
  Phenol resin status after 60 minutes: ∘

## CC(C)(C)C(O)(CCc1ccc(Cl)cc1)Cn1cncn1 (centres unmarked) [Comparative Example 6, tebuconazole]
[2]
  Phenol resin status after 60 minutes: ∘

## Clc1ccc(C2(Cn3cncn3)OCCO2)c(Cl)c1 [Comparative Example 7, azaconazole]
[2]
  Phenol resin status after 60 minutes: ∘

## C[Si](C)(C)CC(O)(Cn1cncn1)c1ccc(F)cc1 (centres unmarked) [Comparative Example 8, simeconazole]
[2]
  Phenol resin status after 60 minutes: ∘

## N#CC(CCc1ccc(Cl)cc1)(Cn1cncn1)c1ccccc1 (centres unmarked) [Comparative Example 9, fenbuconazole]
[2]
  Phenol resin status after 60 minutes: ∘

## C[Si](Cn1cncn1)(c1ccc(F)cc1)c1ccc(F)cc1 [Comparative Example 10, flusilazole]
[2]
  Phenol resin status after 60 minutes: ∘

## OC(Cn1cncn1)(c1ccc(F)cc1)c1ccccc1F (centres unmarked) [Comparative Example 11, flutriafol]
[2]
  Phenol resin status after 60 minutes: ∘

## Clc1ccc(CSC(Cn2cncn2)=Nc2ccc(Cl)cc2Cl)cc1 [Comparative Example 12, imibenconazole]
[2]
  Phenol resin status after 60 minutes: ∘

## CC(C)C1CCC(Cc2ccc(Cl)cc2)C1(O)Cn1cncn1 (centres unmarked) [Comparative Example 13, ipconazole]
[2]
  Phenol resin status after 60 minutes: ∘

## CC1(C)CCC(Cc2ccc(Cl)cc2)C1(O)Cn1cncn1 (centres unmarked) [Comparative Example 14, metconazole]
[2]
  Phenol resin status after 60 minutes: ∘

## CCCCC(C#N)(Cn1cncn1)c1ccc(Cl)cc1 (centres unmarked) [Comparative Example 15, myclobutanil]
[2]
  Phenol resin status after 60 minutes: ∘

## CCCC(Cn1cncn1)c1ccc(Cl)cc1Cl (centres unmarked) [Comparative Example 16, penconazole]
[2]
  Phenol resin status after 60 minutes: ∘

## CCCC1COC(Cn2cncn2)(c2ccc(Cl)cc2Cl)O1 (centres unmarked) [Comparative Example 17, propiconazole]
[2]
  Phenol resin status after 60 minutes: ∘

## FC(F)C(F)(F)OCC(Cn1cncn1)c1ccc(Cl)cc1Cl (centres unmarked) [Comparative Example 18, tetraconazole]
[2]
  Phenol resin status after 60 minutes: ∘

## CC(C)(C)C(=O)C(Oc1ccc(Cl)cc1)n1cncn1 (centres unmarked) [Comparative Example 19, triadimefon]
[2]
  Phenol resin status after 60 minutes: ∘

## CC1(C)CCC(=Cc2ccc(Cl)cc2)C1(O)Cn1cncn1 (centres unmarked) [Comparative Example 20, triticonazole]
[2]
  Phenol resin status after 60 minutes: ∘

## COC(=O)N(OC)c1ccccc1COc1ccn(-c2ccc(Cl)cc2)n1 [Comparative Example 22, pyraclostrobin]
[2]
  Phenol resin status after 60 minutes: ∘

## N#Cc1c(Cl)c(Cl)c(Cl)c(C#N)c1Cl [Comparative Example 25, chlorothalonil]
[2]
  Phenol resin status after 60 minutes: ∘

## benzalkonium chloride [Comparative Example 3]
[2]
  Phenol resin status after 60 minutes: x
  compatibility with phenol resin glue (in words): harden the glue
